{
  "source": "patent US20240393319A1",
  "about": "“FLUORESCENT SENSORS AND METHODS OF MAKING AND USING” (Howard Hughes Medical Institute, priority 2023, published 2024)",
  "key": {"[1]": {"test_system": "nerve terminals of primary hippocampal neurons", "assay": "Presynaptic ATP dynamics with synapto-iATPSnFR2-miRFP670nano3", "format": "cell-based, rat", "details": "0.1 mM glucose", "source_text": "For synapto-iATPSnFR2-miRFP670nano3 experiments, nerve terminals were selected in the miRFP670nano3 channels, blind to the ATPsnfr channel and then background subtracted. The traces are reported as iATPsnfr2 to miRFP670nano3 ratio, Fratio."}, "DJ-1 KD neurons": {"test_system": "DJ-1 KD neurons", "assay": "Synaptic endurance in DJ-1 knock-down neurons", "format": "cell-based, Sprague-Dawley rats", "details": "TZ", "source_text": "(§1) FIG. 11A-11H are experimental results showing that PARK7/DJ-1 is necessary for PGK1 driven hypometabolic resilience.\n(§2) An unbiased chemical screen recently led to the identification of an interaction between PGK1 and DJ-1, the product of the PARK7 gene, a genetic driver of familial PD. DJ-1 is a chaperone with strong structurally similarity to HSP31 but the precise clientele that it supports related to PD is poorly understood. To investigate whether DJ-1 has a functional impact on PGK1 function, we probed PGK1 rescue of hypometabolic synaptic function, but in absence of DJ-1. […] Furthermore, when glucose was substituted with a mixture of lactate and pyruvate, SV recycling kinetics in DJ-1 KD neurons was indistinguishable from control."}, "[2]": {"test_system": "primary hippocampal neurons", "assay": "Synaptic endurance (vGlutI-pH) under repeated stimulation in 0.1 mM glucose", "format": "cell-based, rat"}, "[3]": {"test_system": "DJ-1 KD neurons, nerve terminals", "assay": "Presynaptic ATP in DJ-1 knock-down neurons", "format": "cell-based, Sprague-Dawley rats", "details": "TZ", "source_text": "as §1, §2"}, "[4]": {"test_system": "axonal mitochondria of primary hippocampal neurons", "assay": "Mitochondrial ATP in primary hippocampal neurons (mito-iATPSnFR2.A95A.A119L.HaloTag)", "format": "cell-based, Sprague-Dawley rats", "details": "10 μM KA in 5 mM glucose", "method": "Primary neuronal cultures were prepared as previously described. Hippocampal CA1 to CA3 regions were dissected, dissociated, and plated onto poly-L-ornithine-coated coverslips. Plating media consisted of the minimal essential medium, 0.5% glucose, insulin (0.024 g/l), transferrin ([…]), GlutaMAX 1%, N-21 (2%), and fetal bovine serum (10%). After 1-3 days in vitro (DIV), cells were fed and maintained in media with the following modifications: cytosine β-D-arabinofuranoside (4 μM) and FBS 5%. Cultures were incubated at 37° C. in a 95% air/5% CO2 incubator. Calcium phosphate-mediated gene transfer was performed on DIV 6-8, and neurons were used for experiments on DIV 14-21.\nCoverslips were loaded onto a custom chamber, mounted on a […], 2.5 mM KCl, […], 25 mM HEPES, 2 mM CaCl2), 2 mM MgCl2, 50 μM DL-2-amino-5-phosphonovaleric acid (APV, AP5), 10 μM 6-cyano-7-nitroquinoxaline-2,3-dione (CNQX), adjusted to pH 7.4. […] Fluorescence was stimulated with OBIS 488 nm LX or OBIS 637 nm LS lasers (Coherent) passing through a laser speckle reducer (LSR 3005 at 12° diffusion angle, Optotune). […]\nTime series of imaging pairs (HaloTag and iATPSnFR2) were automated split into two independent image series using a custom-written Fiji routine to facilitate analysis. […] Synaptic boutons signals were analyzed using homemade script routines in Igor-pro v 6.3.7.2 (Wavemetric, Lake Oswego, OR, USA). […]"}, "[5]": {"test_system": "synaptic boutons of hippocampal neurons", "assay": "Syn-iATPSnFR2.HaloTag imaging of ATP depletion in boutons", "format": "cell-based, rat", "details": "5 mM glucose + 10 μM KA + 0.3 μM TTX"}, "[6]": {"test_system": "nerve terminals of hippocampal neurons", "assay": "Nerve terminal ATP in cultured neurons (iATPSnFR2.HaloTag-JFX650)", "format": "cell-based, Sprague-Dawley rats"}, "[7]": {"biological_target": "T1, iATPSnFR2 (L1-VLVG, L2-ICV, A95A, A119L; cpSFGFP inserted in epsilon subunit of Bacillus subtilis PS3 F0-F1 ATPase; SEQ ID NO: 1 / SEQ ID NO: 13) (Bacillus sp. PS3, UniProt P07678)", "T1 construct": "QD to VL at junction, L1-VLVG, L2-ICV; E. coli BL21(DE3)pLysS, Ni-NTA; HaloTag-JFX650 fusion possible", "T1 sequence (P07678 whole entry, stated change not applied, the tested form may be a part)": "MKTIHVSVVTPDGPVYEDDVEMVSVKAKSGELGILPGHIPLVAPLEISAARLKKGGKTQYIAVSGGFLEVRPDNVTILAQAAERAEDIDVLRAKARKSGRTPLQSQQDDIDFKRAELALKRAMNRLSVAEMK", "assay": "Fluorescence response to ATP", "format": "biochemical", "method": "(grey) and 37° C. (black). Error bars are s.d. of three technical replicates. Fluorescence was measured in a Cytation 5 plate reader, which has relatively rapid heating."}, "MaLion": {"test_system": "MaLion", "details": "cited from earlier work"}, "ChemoG-ATPSiR": {"biological_target": "ChemoG-ATPSiR", "details": "read-out: affinity for ATP; cited from earlier work"}, "[8]": {"test_system": "iATPSnFR2.HaloTag-JFX650, three variants S29W.A95K, A95K and A95A.A119L", "assay": "Stopped-flow kinetics of ATP binding", "format": "biochemical, Bacillus subtilis PS3", "details": "ATP 123-10000 μM", "method": "Panels are the sensor with a C-terminal fusion to HaloTag-JFX650. […] Fluorescence data collected on an Applied Photophysics SX-20 stopped-flow apparatus with 490 nm LED excitation and 525 nm long pass filter. Data points are average of 5 technical replicates.\nFinal concentration of protein was thus 0.1 μM."}, "[9]": {"biological_target": "T2, iATPSnFR2.A95K.HaloTag-JFX650 (L1-VLVG, L2-ICV); cpSFGFP inserted in epsilon subunit of Bacillus subtilis PS3 F0-F1 ATPase; mutation A95K; SEQ ID NO: 5, without (Bacillus sp., UniProt P07678, A95K/DELINS96-108[…]/F67N/L78Y/N74K/V42K)", "T2 construct": "polyhistidine tag (bacterial expression vector); made in house; host or cells: E. coli BL21 (DE3) pLysS", "T2 sequence (P07678 other isoform, or with tags, fused parts or gaps V42K/F67N/N74K/L78Y)": "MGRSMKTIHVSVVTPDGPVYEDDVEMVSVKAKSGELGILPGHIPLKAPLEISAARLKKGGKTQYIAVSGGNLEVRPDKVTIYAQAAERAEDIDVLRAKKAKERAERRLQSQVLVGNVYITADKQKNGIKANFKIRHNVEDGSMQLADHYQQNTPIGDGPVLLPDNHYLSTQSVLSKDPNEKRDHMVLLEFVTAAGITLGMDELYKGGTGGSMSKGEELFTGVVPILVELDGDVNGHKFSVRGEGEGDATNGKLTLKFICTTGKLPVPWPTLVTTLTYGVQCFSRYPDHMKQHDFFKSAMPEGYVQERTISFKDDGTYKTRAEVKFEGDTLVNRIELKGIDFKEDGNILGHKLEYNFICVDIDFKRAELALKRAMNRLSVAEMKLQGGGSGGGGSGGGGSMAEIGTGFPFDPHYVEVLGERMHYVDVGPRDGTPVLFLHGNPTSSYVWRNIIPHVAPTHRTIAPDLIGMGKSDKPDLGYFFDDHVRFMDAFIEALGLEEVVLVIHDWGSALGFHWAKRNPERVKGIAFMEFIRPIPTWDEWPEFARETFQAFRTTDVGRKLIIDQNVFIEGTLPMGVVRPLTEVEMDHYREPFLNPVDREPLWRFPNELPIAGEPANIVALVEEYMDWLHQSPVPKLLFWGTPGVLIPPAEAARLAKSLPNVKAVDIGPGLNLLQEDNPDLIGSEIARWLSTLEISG", "assay": "ATP/nucleotide titration, binding curve fits", "details": "stopped flow", "source_text": "(§3) (1A) Artistic rendering of iATPSnFR2.HaloTag made with PyMol. The N-terminal fragment (residues 1-109) of the epsilon subunit of ATPase (orange, based on 2E5Y.PDB) is fused to cpSFGFP (green). The C-terminus of cpSFGFP is fused to the residual ATP-binding helix (residues 110-129) of the epsilon subunit (pink), which itself is fused to HaloTag (cyan). “Linkers” are shown as sticks in yellow. […] HaloTag fluorophore is shown as sticks in red. […] (1C-1E) Ratio of green (iATPSnFR2) to red (HaloTag-JFX650) fluorescence in fibroblasts transfected with three affinity variants of iATPSnFR2-HaloTag. […] Cells were incubated for 21 minutes in buffer containing 10 mM glucose, and then switched to buffer containing 10 mM 2-deoxyglucose. (1C) Rho° cells. (1D) Parental LMTK cell line. (1E) Parental cell line treated with both 2-deoxyglucose and oligomycin.\n(§4) ATP (black), CTP (cyan), GTP (grey), TTP (purple).\n(§5) Purified protein was mixed with 1.1 molar equivalents of JFX650 HaloTag Ligand and incubated at room temperature for 1 hour and then at 4° C. overnight. Excess HaloTag Ligand was removed by gel filtration on a PD-10 column (GE Life Sciences) and re-concentrated by ultrafiltration."}, "[10]": {"biological_target": "T3, iATPSnFR2.S29W.A95K.HaloTag-JFX650 (L1-VLVG, L2-ICV); cpSFGFP inserted in epsilon subunit of Bacillus subtilis PS3 F0-F1 ATPase; mutations A95K, S29W; SEQ ID NO: (Bacillus sp., UniProt P07678, A95K/DELINS96-108[…]/F67N/L78Y/N74K/S29W/V42K)", "T3 construct": "polyhistidine tag (bacterial expression vector); made in house; host or cells: E. coli BL21 (DE3) pLysS", "T3 sequence (P07678 other isoform, or with tags, fused parts or gaps S29W/V42K/F67N/N74K/L78Y)": "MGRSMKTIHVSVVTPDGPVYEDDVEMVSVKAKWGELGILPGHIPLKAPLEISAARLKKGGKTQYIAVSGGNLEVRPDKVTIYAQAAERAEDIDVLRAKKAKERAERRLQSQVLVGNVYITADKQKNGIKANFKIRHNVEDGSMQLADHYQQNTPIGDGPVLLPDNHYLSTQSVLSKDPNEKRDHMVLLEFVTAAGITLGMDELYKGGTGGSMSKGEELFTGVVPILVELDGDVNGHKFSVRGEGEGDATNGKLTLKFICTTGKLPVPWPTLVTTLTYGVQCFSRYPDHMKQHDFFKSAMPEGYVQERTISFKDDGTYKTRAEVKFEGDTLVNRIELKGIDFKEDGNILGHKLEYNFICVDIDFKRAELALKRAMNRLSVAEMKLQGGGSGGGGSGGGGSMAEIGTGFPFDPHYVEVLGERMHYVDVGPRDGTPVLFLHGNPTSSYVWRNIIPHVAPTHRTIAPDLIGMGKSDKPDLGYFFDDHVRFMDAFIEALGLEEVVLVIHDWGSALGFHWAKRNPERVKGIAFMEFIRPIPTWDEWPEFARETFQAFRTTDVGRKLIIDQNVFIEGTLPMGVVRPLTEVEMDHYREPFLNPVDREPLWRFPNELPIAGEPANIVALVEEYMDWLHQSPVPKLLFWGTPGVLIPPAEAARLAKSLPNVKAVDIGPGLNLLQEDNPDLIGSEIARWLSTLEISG", "assay": "ATP/nucleotide titration, binding curve fits", "details": "stopped flow", "source_text": "as §3, §4, §5"}, "HaloTag-JF635": {"test_system": "HaloTag-JF635", "assay": "Titration of HaloTag-JF635 with ATP", "format": "biochemical", "details": "FIG. 8B"}, "Rho° (ρ^0) cells": {"test_system": "Rho° (ρ^0) cells", "assay": "Green:red fluorescence (ATP) on treatment", "format": "cell-based, mouse", "details": "10 mM 2dOG replacing glucose", "method": "(§6) Rho° and the parental LMTK-cells were maintained in T-75 flasks with DMEM+10% FBS+1 mM pyruvate+5 μM uridine. Two days prior to transfection, they were split into a 24-well plate (half Rho°, half LMTK) at 0.6 and 0.1 million cells per well, respectively. Cells were transfected with iATPSnFR2.HaloTag variants by lipofectamine (0.5 μg DNA+2 μL lipofectamine 2000 per well) for 4-6 hours in DMEM lacking FBS or antibiotics. Transfection media was replaced with fresh DMEM+10% FBS+penicillin/streptomycin overnight. Cells were labeled with JFX650 HaloTag ligand by adding the fluorophore to 100 nM for an hour. Cells were washed with Mammalian Cell Imaging Buffer and imaged in a Cytation 5 imaging reader (BioTek) over the course of about 2 hours. After about 20 minutes of imaging to establish a baseline fluorescence, the culture plate was removed from the instrument and buffer was replaced with the query buffer. The equilibration buffer contained 10 mM glucose, and the query buffers contained 10 mM 2dOG.\n(§7) Images were background subtracted and aligned for movement artefacts with the Gen5 software package that controls the Cytation 5 instrument. Images were assembled as TIF stacks and imported into ImageJ. […] Those ROIs were used to determine the ratio of green to red fluorescence for each well. […]"}, "[11]": {"test_system": "LMTK- cells (parental fibroblast cell line)", "assay": "Green:red fluorescence (ATP) on treatment", "format": "cell-based, mouse", "details": "10 mM 2dOG replacing glucose", "method": "as §6, §7"}},
  "note": "Entries after “also recorded” stand apart in the source; their conditions may differ.",
  "data": [
    {"smiles": "COc1cc2nc(N3CCN(C(=O)C4CCCO4)CC3)nc(N)c2cc1OC", "note": "(stereo not shown) [TZ, Terazosin]", "values": [
      {"measurement": "resting (pre-stimulus) nerve terminal ATP", "setting": "[1]", "value": "slightly elevated; also recorded: higher starting ATP"},
      {"measurement": "ATP depletion during stimulation", "setting": "[1]; 600 APs at 10 Hz", "value": "blunted; also recorded: significantly smaller activity-induced drops in ATP"},
      {"measurement": "ATP production following activity", "setting": "[1]; DJ-1 KD neurons", "value": "no acceleration of ATP production; also recorded: inability of TZ to accelerate ATP kinetics"},
      {"measurement": "recycling restoration: slowing of SV recycling after intense stimulation", "setting": "DJ-1 KD neurons", "value": "could not be reversed"},
      {"measurement": "synaptic endurance in low glucose", "setting": "[2]; 1 μM", "value": "ineffective"},
      {"measurement": "synaptic endurance in low glucose", "setting": "[2]; 10 μM", "value": "conferred significant resilience"},
      {"measurement": "synaptic endurance in low glucose", "setting": "[2]; 100 μM", "value": "either ineffective or likely deleterious"},
      {"measurement": "synaptic endurance in low glucose", "setting": "[2]; 0.1 mM glucose, concentration not given", "value": "confers significant resilience"},
      {"measurement": "synaptic endurance in low glucose", "setting": "[2]; absence of DJ-1 (DJ-1 KD)", "value": "completely failed to restore synaptic endurance"},
      {"measurement": "synaptic endurance in low glucose", "setting": "[2]; neurons with shRNA targeting PGK1", "value": "eliminated"},
      {"measurement": "acceleration of ATP production after burst of activity", "setting": "[3]", "value": "inability of TZ to accelerate ATP kinetics in absence of DJ-1"}
    ]},
    {"smiles": "CC(C)[C@H]1CC[C@@]2(CO2)[C@H]2C(=O)OCC(C(=O)O)=C[C@H]12", "note": "[koningic acid]", "values": [
      {"measurement": "change in mitochondrial ATP", "setting": "[4]", "value": "gradual decrease of [ATP]"},
      {"measurement": "average green to red fluorescence ratio in boutons", "setting": "[5]", "value": "gradually declined over a 5-10 min period"},
      {"measurement": "decline of average green to red ratio (ATP) without activity", "setting": "[6]; 10 μM KA with 0.3 μM TTX", "value": "gradually declined over a 5-10 min period"},
      {"measurement": "time for ATP depletion in single boutons after delay", "setting": "[6]; 10 μM KA with 0.3 μM TTX", "value": "10 to 20", "unit": "s"},
      {"measurement": "change in fluorescence (ATP) during action potential firing", "setting": "[6]; 10 μM KA, 5 mM glucose, 50 Hz 6 sec", "value": "even greater decrease in fluorescence that did not recover within the minute and a half observation window"}
    ]},
    {"smiles": "Nc1ncnc2c1ncn2[C@@H]1O[C@H](COP(=O)(O)OP(=O)(O)OP(=O)(O)O)[C@@H](O)[C@H]1O", "note": "[ATP]", "values": [
      {"measurement": "ΔF/F in response to saturating ATP", "setting": "[7]", "value": "~12"},
      {"measurement": "increase in fluorescence upon saturation with ATP", "setting": "MaLion", "value": "~5", "unit": "fold"},
      {"measurement": "Kd", "setting": "ChemoG-ATPSiR", "value": "~2000", "unit": "µM"},
      {"measurement": "time to bind ATP", "setting": "[8]", "value": "within a one or two seconds"},
      {"measurement": "rate of ATP binding compared with A95A.A119L", "setting": "[9]", "value": "bind ATP faster than the A95A.A119L variant"},
      {"measurement": "rate of ATP binding compared with A95A.A119L", "setting": "[10]", "value": "bind ATP faster than the A95A.A119L variant"},
      {"measurement": "sensitivity to ATP", "setting": "HaloTag-JF635", "value": "sensitive to ATP, albeit with low ΔF/F"}
    ]},
    {"smiles": "OC[C@H]1OC(O)C[C@@H](O)[C@@H]1O", "note": "(stereo partly shown) [2dOG, 2-deoxyglucose]", "values": [
      {"measurement": "change in green fluorescence (ATP)", "setting": "Rho° (ρ^0) cells", "value": "green fluorescence rapidly dropped; also recorded: significant decrease in fluorescence"},
      {"measurement": "change in green fluorescence (ATP)", "setting": "[11]", "value": "decreased fluorescence only in the parental LMTK-cells expressing the weakest affinity variant (A95A.A119L)"}
    ]}
  ]
}
